pIC50, pKi: −log10 of the molar value. Marks after values point to notes of the source that are not given here.
Key:
[1] = biological target: carbonic anhydrase type I; conditions: read-out: Ki used as PoD for the MoS calculation; ref PubChem; cited from earlier work
[2] = tested on: MAO-B; conditions: ref Gnerre et al., 2000; cited from earlier work
[3] = tested on: HepaRG 3D; test: In vitro cell stress panel in HepaRG 3D spheroids; assay type: cell-based, human
[4] = biological target: T1, CYP2A6 (Homo sapiens, UniProt P11509); test: Compound stability in expressed human CYP2A6; conditions: heterologously expressed (recombinant) CYP2A6
T1 sequence (P11509 1-494): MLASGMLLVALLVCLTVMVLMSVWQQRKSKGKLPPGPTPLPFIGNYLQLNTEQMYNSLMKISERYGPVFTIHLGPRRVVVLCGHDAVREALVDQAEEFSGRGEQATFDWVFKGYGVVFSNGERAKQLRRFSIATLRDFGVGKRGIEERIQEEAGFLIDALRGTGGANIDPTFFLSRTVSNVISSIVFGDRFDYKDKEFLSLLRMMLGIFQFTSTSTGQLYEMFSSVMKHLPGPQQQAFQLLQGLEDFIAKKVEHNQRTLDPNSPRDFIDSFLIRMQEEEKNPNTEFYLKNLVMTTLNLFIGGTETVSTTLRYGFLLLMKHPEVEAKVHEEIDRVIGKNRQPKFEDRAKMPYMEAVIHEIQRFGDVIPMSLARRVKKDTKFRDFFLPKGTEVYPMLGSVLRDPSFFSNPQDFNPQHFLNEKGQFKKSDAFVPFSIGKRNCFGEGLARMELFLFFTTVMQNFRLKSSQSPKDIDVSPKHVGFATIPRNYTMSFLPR

[5] = tested on: HepG2
[6] = biological target: carbonic anhydrase type IV; conditions: read-out: Ki used as PoD for the MoS calculation; ref PubChem; cited from earlier work
[7] = tested on: mES reporter cell lines; test: ToxTracker genotoxicity assay; assay type: cell-based
[8] = tested on: LPS-stimulated PBMC and endothelial cell coculture system; test: BioMap Diversity 8 Panel, LPS system; assay type: cell-based, human; conditions: up to 500 µM
[9] = assessment factor of 100 on the animal NOAEL; ref EFSA, 2008; cited from earlier work
[10] = Human cryopreserved hepatocyte stability assay; assay type: in vitro ADME; conditions: cryopreserved hepatocytes
[11] = tested on: HepaRG 2D; test: High-throughput transcriptomics
[12] = tested on: MCF7; test: High-throughput transcriptomics
[13] = tested on: SAg-stimulated PBMC and endothelial cell coculture system; test: BioMap Diversity 8 Panel, SAg system; assay type: cell-based, human; conditions: up to 500 µM
[14] = tested on: HepaRG 3D; test: High-throughput transcriptomics; assay type: cell-based, human
[15] = Determination of the margin of safety; conditions: for Preliminary MoS (range): PoDs of the in vitro bioactivity characterization step
[16] = biological target: T2, MAO-A (Rattus norvegicus, UniProt P21396); test: SafetyScreen44 MAO-A; assay type: binding; conditions: coumarin 10 µM
T2 sequence (P21396 1-526): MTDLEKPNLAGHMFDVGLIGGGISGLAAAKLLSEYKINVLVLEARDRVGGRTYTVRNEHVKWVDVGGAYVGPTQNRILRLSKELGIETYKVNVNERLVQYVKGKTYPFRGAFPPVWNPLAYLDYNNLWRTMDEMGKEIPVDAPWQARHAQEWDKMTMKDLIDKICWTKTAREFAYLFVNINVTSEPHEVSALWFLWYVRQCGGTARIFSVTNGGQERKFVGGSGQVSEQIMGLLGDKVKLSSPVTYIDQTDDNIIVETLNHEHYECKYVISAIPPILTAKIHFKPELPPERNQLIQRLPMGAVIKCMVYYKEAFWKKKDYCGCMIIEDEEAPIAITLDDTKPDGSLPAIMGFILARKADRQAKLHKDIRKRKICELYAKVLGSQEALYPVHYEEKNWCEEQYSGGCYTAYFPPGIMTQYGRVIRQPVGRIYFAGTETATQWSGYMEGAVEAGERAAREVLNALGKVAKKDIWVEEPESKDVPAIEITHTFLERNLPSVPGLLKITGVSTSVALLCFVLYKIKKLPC

[17] = tested on: 8 cell-based human primary cell cultures (or cocultures); conditions: ref ToxCast, CompTox Chemicals Dashboard; cited from earlier work
[18] = biological target: T2, MAO-A; conditions: ref Gnerre et al., 2000; cited from earlier work

Structure (SMILES): O=c1ccc2ccccc2o1 [Coumarin]
- pKi [1]: 5.52
- pIC50 [2]: 4.39
- biomarker changes at 24 h [3]: no changes
- half-life at 1 µM [4]: < 5 min
- PoDT, 20 pathways with the lowest BMD Reactome ([5]; HepG2, 24 h): 44 µM
- PoDT, BMD of Reactome pathway with lowest BMD that meets significance threshold criteria ([5]; HepG2, 24 h): 31 µM
- PoDT, Mean BMD of genes between 25th and 75th percentile ([5]; HepG2, 24 h): 17 µM
- number of genes in gene-level tests ([5]; HepG2, 24 h): (1570 genes)
- number of pathways in pathway-level tests ([5]; HepG2, 24 h): (308 pathways)
- cytotoxicity (> 20%) ([5]; HepG2, up to the maximum tested concentration, data not shown): No significant cytotoxicity
- pKi [6]: 4.21
- Blvrb-GFP oxidative stress marker ([7]; presence of S9, 24 h): activated
- Btg2-GFP reporter (p53 response) activation ([7]; presence of S9, 24 h): weak activation
- Srxn1-GFP oxidative stress marker ([7]; presence of S9, 24 h): activated
- cytotoxicity ([7]; up to 1000 µM, absence or presence of S9): No significant cytotoxicity
- Srxn1-GFP oxidative stress reporter ([7]; without metabolic activation, 24 h): induced
- biomarkers affected [8]: No biomarkers were affected
- tolerable daily intake (TDI) for coumarin in foods [9]: 0 to 0.1 mg/kg/day
- half-life [10]: 13 min
- cytotoxicity (> 20%) ([11]; 2D HepaRG, up to the maximum tested concentration, data not shown): No significant cytotoxicity
- PoDT, Mean BMD of genes between 25th and 75th percentile ([11]; HepaRG 2D, 24 h): 59 µM
- number of pathways in pathway-level tests ([11]; HepaRG 2D, 24 h): 17 pathways
- PoDT, Mean BMD of genes between 25th and 75th percentile ([12]; MCF7, 24 h): 1 µM
- cytotoxicity (> 20%) ([12]; MCF7, up to the maximum tested concentration, data not shown): No significant cytotoxicity
- biomarkers affected [13]: No biomarkers were affected
- summarized PoDs after 24 h exposure (range) [14]: 41 to 55 µM
- PoDT, BMD of Reactome pathway with lowest BMD that meets significance threshold criteria ([14]; 24 h): 41 µM
- number of genes in gene-level tests ([14]; 24 h): (9 genes)
- PoDT, Mean BMD of genes between 25th and 75th percentile ([14]; 24 h, fewer than 20 genes (*)): 46* µM
- PoDT, 20 pathways with the lowest BMD Reactome ([14]; 24 h, fewer than 20 pathways (*)): 46* µM
- number of genes in gene-level tests ([14]; 24 h, listed as coumarin): 9 genes
- number of pathways in pathway-level tests ([14]; 24 h, listed as coumarin): 2 pathways
- Body Lotion Min. 5th percentile MoS ([15]; PubChem, Carbonic Anhydrase Type I): 158
- Preliminary MoS (range) ([15]; body lotion): 158-22048
- MoS (the 5th percentile), all PoDs ([15]; face cream and body lotion): higher than 100
- Preliminary MoS (range) ([15]; face cream): 706-96738
- Mean % inhibition, Specific binding [16]: 22%
- concentration-response in BioMap data generated during the ToxCast program [17]: No concentration-response
- pIC50 [18]: 4.92

— article PMC7357171 (Toxicological Sciences, 2020)
